# In patent US20140377223A1, “SUBSTITUTED B[…] AND METHODS OF USE THEREOF FOR THE TREATMENT OF VIRAL DISEASES” (priority 2010, published 2014):
# What was measured:
# HCV replicon genotype 2a = assay: Cell-based HCV replicon assay (TaqMan-based), genotype 2a; details: Hepatitis C virus, 72 h, HCV replicon cells, replicon RNA by real time PCR (TaqMan) on day 3
# Description: (§1) Measurement of inhibition by compounds was performed using the HCV replicon system. Several different replicons encoding different HCV genotypes or mutations were used. In addition, potency measurements were made using different formats of the replicon assay, including different ways of measurements and different plating formats. See Jan M. Vrolijk et al., A replicons-based bioassay for the measurement of interferons in patients with chronic hepatitis C, 110 J. VIROLOGICAL METHODS 201 (2003); Steven S. Carroll et al., Inhibition of Hepatitis C Virus RNA Replication by 2′-Modified Nucleoside Analogs, 278(14) J. BIOLOGICAL CHEMISTRY 11979 (2003). However, the underlying principles are common to all of these determinations, and are outlined below.
# (§2) TaqMan®-Based Assay Protocol: Compounds 1, 2 and 3 were assayed for cell-based anti-HCV activity by the following protocol. Replicon cells were seeded at 5000 cells/well in 96-well collagen I-coated Nunc plates in the presence of the test compound. Various concentrations of test compound, typically in 10 serial 2-fold dilutions, were added to the assay mixture, with the starting concentration ranging from 250 μM to 1 μM. The final concentration of DMSO was 0.5%, fetal bovine serum was 5%, in the assay media. Cells were harvested on day 3 by the addition of 1× cell lysis buffer (Ambion cat #8721). The replicon RNA level was measured using real time PCR (TaqMan® assay). The amplicon was located in 5B. The PCR primers were: 5B.2F, ATGGACAGGCGCCCTGA (SEQ. ID NO. 1); 5B.2R, […] (SEQ. ID NO. 2); the probe sequence was FAM-labeled CACGCCATGCGCTGCGG (SEQ. ID NO. 3). GAPDH RNA was used as endogenous control and was amplified in the same reaction as NS5B (multiplex PCR) using primers and VIC-labeled probe recommended by the manufacturer (PE Applied Biosystem). […] Alternatively, to quantitate the absolute amount of replicon RNA, a standard curve was established by including serially diluted T7 transcripts of replicon RNA in the Taqman assay. […]
# HCV replicon genotype 1b = assay: Cell-based HCV replicon assay (TaqMan-based), genotype 1b; details: Hepatitis C virus, 72 h, HCV replicon cells, replicon RNA by real time PCR (TaqMan) on day 3
# Description: as §1, §2
# HCV replicon genotype 1a = assay: Cell-based HCV replicon assay (TaqMan-based), genotype 1a; details: Hepatitis C virus, 72 h, HCV replicon cells, replicon RNA by real time PCR (TaqMan) on day 3
# Description: as §1, §2
# HCV replicon genotype 3a = assay: Cell-based HCV replicon assay (TaqMan-based), genotype 3a; details: Hepatitis C virus, 72 h, read-out: Genotype EC50 (nM) 3a
# Description: as §1, §2
smiles,measurement,setting,value
COC(=O)N[C@H](C(=O)N1CCC[C@H]1c1ncc(-c2ccc3c(c2)-c2ccc(-c4cnc([C@@H]5CCCN5C(=O)[C@@H](NC(=O)OC)C(C)C)[nH]4)cc2-3)[nH]1)C(C)C [Compound 1],EC50,HCV replicon genotype 2a,< 0.019 nM
same,EC50,HCV replicon genotype 1b,0.007 nM
same,EC50,HCV replicon genotype 1a,0.03 nM
same,EC50,HCV replicon genotype 3a,< 0.19 nM
COC(=O)N[C@H](C(=O)N1C(c2ncc(-c3ccc4c(c3)-c3ccc(-c5cnc([C@@H]6[C@H]7CC[C@H](C7)N6C(=O)[C@@H](NC(=O)OC)C(C)C)[nH]5)cc3-4)[nH]2)[C@H]2CC[C@@H]1C2)C(C)C (stereo partly drawn) [Compound 2],EC50,HCV replicon genotype 2a,< 0.019 nM
same,EC50,HCV replicon genotype 1b,0.005 nM
same,EC50,HCV replicon genotype 1a,0.52 nM
same,EC50,HCV replicon genotype 3a,< 0.19 nM
COC(=O)N[C@H](C(=O)N1CC(F)(F)C[C@H]1c1ncc(-c2ccc3c(c2)-c2ccc(-c4cnc([C@@H]5CC(F)(F)CN5C(=O)[C@@H](NC(=O)OC)C(C)C)[nH]4)cc2-3)[nH]1)C(C)C [Compound 3],EC50,HCV replicon genotype 2a,< 0.019 nM
same,EC50,HCV replicon genotype 1b,0.003 nM
same,EC50,HCV replicon genotype 1a,0.05 nM
same,EC50,HCV replicon genotype 3a,0.022 nM
